Source: patent US9187472B2 (AbbVie Inc., priority 2012, dated 2015)

These molecules were tested on PC3 cells (assay: NAMPT Cell Proliferation Assay). Settings: Homo sapiens, PC-3, 120 h, 5 days incubation, cell viability by Cell Titer Glo.
Format: cell-based
Method in brief: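 Proliferation of PC3 cells treated 5 days with a 10-fold compound series (top 10 μM) was quantified by Cell Titer Glo luminescence; IC50s were fitted from percent inhibition.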

IC50 [nM] | Compound
2.02 | O=C(NCc1ccn2ccnc2c1)c1ccc(C2CCN(C(=O)c3cccc4c3OCCO4)CC2)cc1 [Example 978, 4-[1-(2,3-dihydro-1,4-benzodioxin-5-ylcarbonyl)piperidin-4-yl]-N-(imidazo[1,2-a]pyridin-7-ylmethyl)benzamide]
75.7 | O=C(NCc1ccn2ccnc2c1)c1ccc(C2CCN(C(=O)c3cncc4ccccc34)CC2)cc1 [Example 979, N-(imidazo[1,2-a]pyridin-7-ylmethyl)-4-[1-(isoquinolin-4-ylcarbonyl)piperidin-4-yl]benzamide]
29.4 | Cc1nc2ccc(C(=O)N3CCC(c4ccc(C(=O)NCc5ccn6ccnc6c5)cc4)CC3)cc2o1 [Example 980, N-(imidazo[1,2-a]pyridin-7-ylmethyl)-4-{1-[(2-methyl-1,3-benzoxazol-6-yl)carbonyl]piperidin-4-yl}benzamide]
6.54 | Cc1cc(C(=O)N2CCC(c3ccc(C(=O)NCc4ccn5ccnc5c4)cc3)CC2)n(C(C)(C)C)n1 [Example 981, 4-{1-[(1-tert-butyl-3-methyl-1H-pyrazol-5-yl)carbonyl]piperidin-4-yl}-N-(imidazo[1,2-a]pyridin-7-ylmethyl)benzamide]
100 | N#CC1(C(=O)N2CCC(c3ccc(C(=O)NCc4ccn5ccnc5c4)cc3)CC2)CCCC1 [Example 982, 4-{1-[(1-cyanocyclopentyl)carbonyl]piperidin-4-yl}-N-(imidazo[1,2-a]pyridin-7-ylmethyl)benzamide]

The remaining lines, values behind:

Compound | IC50 [nM]
O=C(NCc1ccn2ccnc2c1)c1ccc(C2CCN(C(=O)c3ccnn3C(F)F)CC2)cc1 [Example 969, 4-(1-{[1-(difluoromethyl)-1H-pyrazol-5-yl]carbonyl}piperidin-4-yl)-N-(imidazo[1,2-a]pyridin-7-ylmethyl)benzamide] | 6.36
O=C(NCc1ccn2ccnc2c1)c1ccc(C2CCN(C(=O)c3ccc4c(c3)CCCO4)CC2)cc1 [Example 970, 4-[1-(3,4-dihydro-2H-chromen-6-ylcarbonyl)piperidin-4-yl]-N-(imidazo[1,2-a]pyridin-7-ylmethyl)benzamide] | 10.9
O=C(NCc1ccn2ccnc2c1)c1ccc(C2CCN(C(=O)COC3CCCCC3)CC2)cc1 [Example 971, 4-{1-[(cyclohexyloxy)acetyl]piperidin-4-yl}-N-(imidazo[1,2-a]pyridin-7-ylmethyl)benzamide] | 22.6
O=C(NCc1ccn2ccnc2c1)c1ccc(C2CCN(C(=O)Cc3cccnc3Cl)CC2)cc1 [Example 972, 4-{1-[(2-chloropyridin-3-yl)acetyl]piperidin-4-yl}-N-(imidazo[1,2-a]pyridin-7-ylmethyl)benzamide] | 28.9
O=C(NCc1ccn2ccnc2c1)c1ccc(C2CCN(C(=O)c3cc(C4CC4)on3)CC2)cc1 [Example 973, 4-{1-[(5-cyclopropyl-1,2-oxazol-3-yl)carbonyl]piperidin-4-yl}-N-(imidazo[1,2-a]pyridin-7-ylmethyl)benzamide] | 21.8
O=C(NCc1ccn2ccnc2c1)c1ccc(C2CCN(C(=O)C3=Cc4ccccc4OC3)CC2)cc1 [Example 974, 4-[1-(2H-chromen-3-ylcarbonyl)piperidin-4-yl]-N-(imidazo[1,2-a]pyridin-7-ylmethyl)benzamide] | 28.7
O=C(NCc1ccn2ccnc2c1)c1ccc(C2CCN(C(=O)c3ncc(F)cc3F)CC2)cc1 [Example 975, 4-{1-[(3,5-difluoropyridin-2-yl)carbonyl]piperidin-4-yl}-N-(imidazo[1,2-a]pyridin-7-ylmethyl)benzamide] | 50.3
O=C(NCc1ccn2ccnc2c1)c1ccc(C2CCN(C(=O)C3COc4ccccc4O3)CC2)cc1 (centres unmarked) [Example 976, 4-[1-(2,3-dihydro-1,4-benzodioxin-2-ylcarbonyl)piperidin-4-yl]-N-(imidazo[1,2-a]pyridin-7-ylmethyl)benzamide] | 34.9
COC1CCC(C(=O)N2CCC(c3ccc(C(=O)NCc4ccn5ccnc5c4)cc3)CC2)CC1 (centres unmarked) [Example 977, N-(imidazo[1,2-a]pyridin-7-ylmethyl)-4-{1-[(4-methoxycyclohexyl)carbonyl]piperidin-4-yl}benzamide] | 2.65
